The text below walks through data of PubChem BioAssay (NCI).

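Exposure lasted 48 hours, with cells grown in 96-well plates and compounds tested at five concentrations. TGI: concentration producing complete growth inhibition.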 Bounds are passed on as bounds.

Experiment in all cases: NCI tumour cell line growth inhibition, 48 h
Experiment [1] deals with NCI-H23 lung.
Experiment [2] has as its system SW-620 colon.
Experiment [3] has as its system MOLT-4 leukemia.
The subject of experiment [4] is SF-539 CNS.
The test system of experiment [5] is U251 CNS.
For experiment [6], the system named is SNB-19 CNS.
Experiment [7] concerns HOP-92 NSCLC.
The subject of experiment [8] is SK-MEL-28 melanoma.
Experiment [9] concerns LXFL 529 NSCLC.
Experiment [10] concerns OVCAR-5 ovarian.
The test system of experiment [11] is CCRF-CEM leukemia.
The test system of experiment [12] is HOP-62 NSCLC.
For experiment [13], the system named is SK-MEL-2 melanoma.
Experiment [14] relates to CAKI-1 renal.
Experiment [15] relates to UO-31 renal.
Experiment [16] deals with A549 NSCLC.
In experiment [17] the test system is UACC-257 melanoma.
Experiment [18] has as its system SF-268 CNS.

For `CC(=O)OC1CC2C(C)(C)C(=O)C=C[C@]2(C)C2CCC3(C)C(c4ccoc4)[C@@H](O)[C@H]4O[C@]43[C@]12C` (some centres undefined), the TGI came out at 34.4 µM in experiment [1]; 35.4 µM in [2]; 88.8 µM in experiment [3]; 34.2 µM in experiment [4]; 27.8 µM in experiment [5]; 59.6 µM in [6]. The TGI in experiment [7] amounted to 39.9 µM; in experiment [8], 40.5 µM; in experiment [9], 37 µM; in experiment [10], 50 µM; in experiment [11], 54 µM; in [12], 42.6 µM. For the same molecule, the TGI in [13] was 39.6 µM; in [14], 45.6 µM; in experiment [15], 31.8 µM; in [16] it was 85.7 µM; in [17] it was 41.6 µM; in experiment [18], 51.8 µM.

In the case of `C=C(Br)C(C)(Br)CCC(Br)C(C)(C)Br` (centres undefined), the TGI is greater than 100 µM in experiment [1]; 70.9 µM in experiment [2]; 94.2 µM in experiment [3]; 38.8 µM in experiment [4]; 38.4 µM in [5]; 40.6 µM in [7]. Further, the TGI in experiment [8] is 46.3 µM; in experiment [9] it was 45.2 µM; in experiment [10], greater than 100 µM; in experiment [11], 63.5 µM; in experiment [12], 34.9 µM; in [13], 55.7 µM. Also, the TGI was greater than 100 µM in experiment [14]; greater than 100 µM in experiment [15]; greater than 100 µM in experiment [16]; greater than 100 µM in experiment [17]; 91 µM in [18].

In the case of `CC1=CC(=O)c2c(C=O)c(O)c(O)c(C(C)C)c2C1=O`, the TGI in [1] was greater than 85.5 µM; in experiment [3], 66.3 µM; in experiment [4] it was 58.4 µM; in experiment [5], 47.4 µM; in experiment [6], greater than 100 µM; in experiment [7], 45.5 µM. The TGI is greater than 100 µM in experiment [8]; 41.4 µM in [9]; greater than 92.2 µM in experiment [10]; 60.1 µM in experiment [11]; greater than 100 µM in experiment [12]; 57.5 µM in [13]. The TGI was 52.9 µM in experiment [14], greater than 56.8 µM in experiment [15] and 77.2 µM in [18].

Consider `Cc1c(C(=O)/C=C/c2c(Cl)cccc2Cl)c(=O)n(-c2ccccc2)n1C`, for which the TGI was 25.9 µM in experiment [2]; greater than 100 µM in experiment [3]; 2.98 µM in experiment [5]; greater than 100 µM in experiment [6]; 74.6 µM in experiment [7]; greater than 100 µM in experiment [8]. Moreover, the TGI in [9] was 31.1 µM; in experiment [10], greater than 100 µM; in experiment [11] it was 56.6 µM; in experiment [13] it was 75 µM; in experiment [14] it was greater than 100 µM; in [15], greater than 100 µM. For the same molecule, the TGI in [16] is 74.9 µM; in [17], greater than 100 µM; in [18], greater than 100 µM.

Turning to `CCOC(=O)C(C(=O)OCC)=C1N[C@H](C(=O)OCC)CS1`, the TGI in [1], in experiment [2], in experiment [3], in experiment [4], in experiment [5] and in [6] was greater than 100 µM each time. In addition, the TGI in experiment [8], in [9], in experiment [10], in experiment [11], in experiment [12] and in [13] was greater than 100 µM throughout. Besides, the TGI in experiment [14], in [15], in experiment [16], in [17] and in [18] was greater than 100 µM each time.

As for `CCCCCNC(=O)c1c(O)[nH]c(=S)[nH]c1=O`, the TGI in experiment [1], in experiment [2], in [3], in [4], in experiment [5] and in [6] was greater than 100 µM throughout. The TGI in experiment [7], in [8], in experiment [9], in [10], in experiment [11] and in [12] was greater than 100 µM throughout. Moreover, the TGI in [13], in experiment [14], in [16], in [17] and in experiment [18] was greater than 100 µM each time.
